Reference: patent US6737383B1, “Herbicidal oxadiazolidines” (priority 1999, dated 2004)

Columns and labels:
[1] = tested on: morningglory; experiment: Test B pre/postemergence morningglory; assay type: in vivo, Ipomoea hederacea; conditions: for Plant response rating, Morningglory: scale of 0 to 10 where 0 is no effect and 10 is complete control
Method in brief: (§1)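 Test chemicals in a non-phytotoxic solvent mixture with surfactant were sprayed preemergence onto planted seeds and postemergence onto plants 2 to 18 cm tall (1- to 4-leaf stage). After twelve to sixteen days in a greenhouse, injury was visually rated against untreated controls from 0 (no effect) to 10 (complete control).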

[2] = tested on: smallflower flatsedge; experiment: Test B flood test smallflower flatsedge; assay type: in vivo, Cyperus difformis
Method in brief: (§2)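 Plants were grown to the 2-leaf stage before treatment with test chemical, then held in a greenhouse for twelve to sixteen days. Injury was visually rated against untreated controls on a 0–10 scale, where 0 is no effect and 10 is complete control.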

[3] = tested on: pigweed; experiment: Test B pre/postemergence pigweed; assay type: in vivo, Amaranthus retroflexus; conditions: for Plant response rating, Redroot pigweed: scale of 0 to 10 where 0 is no effect and 10 is complete control
Method in brief: as §1

[4] = tested on: rape; experiment: Test B pre/postemergence rape; assay type: in vivo, Brassica napus; conditions: for Plant response rating, Rape: scale of 0 to 10 where 0 is no effect and 10 is complete control
Method in brief: as §1

[5] = tested on: bedstraw; experiment: Test B pre/postemergence bedstraw; assay type: in vivo, Galium aparine
Method in brief: as §1

[6] = tested on: wheat; experiment: Test B pre/postemergence wheat; assay type: in vivo, Triticum aestivum; conditions: for Plant response rating, Wheat: scale of 0 to 10 where 0 is no effect and 10 is complete control
Method in brief: as §1

[7] = tested on: giant foxtail; experiment: Test B pre/postemergence giant foxtail; assay type: in vivo, Setaria faberii
Method in brief: as §1

[8] = tested on: cocklebur; experiment: Test B pre/postemergence cocklebur; assay type: in vivo, Xanthium strumarium
Method in brief: as §1

[9] = tested on: surinam grass; experiment: Test B pre/postemergence surinam grass; assay type: in vivo, Brachiaria decumbens
Method in brief: as §1

[10] = tested on: purple nutsedge; experiment: Test B pre/postemergence purple nutsedge; assay type: in vivo, Cyperus rotundus; conditions: for Plant response rating, Nutsedge: scale of 0 to 10 where 0 is no effect and 10 is complete control
Method in brief: as §1

[11] = tested on: duck salad; experiment: Test B flood test duck salad; assay type: in vivo, Heteranthera limosa
Method in brief: as §2

[12] = tested on: sugar beet; experiment: Test B pre/postemergence sugar beet; assay type: in vivo, Beta vulgaris; conditions: for Plant response rating, Sugarbeets: scale of 0 to 10 where 0 is no effect and 10 is complete control
Method in brief: as §1

[13] = tested on: soybean; experiment: Test B pre/postemergence soybean; assay type: in vivo, Glycine max; conditions: for Plant response rating, Soybean: scale of 0 to 10 where 0 is no effect and 10 is complete control
Method in brief: as §1

[14] = tested on: blackgrass; experiment: Test B pre/postemergence blackgrass; assay type: in vivo, Alopecurus myosuroides
Method in brief: as §1

[15] = tested on: bamyardgrass; experiment: Test B flood test barnyardgrass; assay type: in vivo, Echinochloa crus-galli
Method in brief: as §2

[16] = tested on: wild oat; experiment: Test B pre/postemergence wild oat; assay type: in vivo, Avena fatua; conditions: for Plant response rating, Wild oats: scale of 0 to 10 where 0 is no effect and 10 is complete control
Method in brief: as §1

[17] = Postemergence, Rate 250 g/ha, scale 0 to 10
[18] = Preemergence, Rate 250 g/ha, scale 0 to 10, 0 is no effect, 10 is complete control
[19] = Preemergence, Rate 500 g/ha, scale 0 to 10, 0 is no effect, 10 is complete control
[20] = Rate 62 g/ha, Postemergence, scale 0 to 10 (0 no effect, 10 complete control)
[21] = Rate 125 g/ha, Postemergence, scale 0 to 10, 0 is no effect, 10 is complete control
[22] = Rate 62 g/ha, flood test species, Pre-emergence, visual evaluation after twelve to sixteen days
[23] = Rate 125 g/ha, under heading Pre-emergence, flood test species, visual evaluation after twelve to sixteen days
[24] = Rate 250 g/ha, Pre-emergence (flood test species), scale 0 to 10, 0 is no effect, 10 is complete control
[25] = Rate 500 g/ha, Pre-emergence, flood test species, scale 0 to 10 (0 no effect, 10 complete control)
[26] = Preemergence, Rate 125 g/ha, scale of 0 to 10 where 0 is no effect and 10 is complete control
[27] = Postemergence, Rate 500 g/ha, scale of 0 to 10 where 0 is no effect and 10 is complete control
[28] = Preemergence, Rate 62 g/ha, scale of 0 to 10 where 0 is no effect and 10 is complete control

## CC(C)N(C(=O)n1oc(=O)n(CC2=NOCC2)c1=O)c1ccc(F)cc1 [Compound 466]
[1]; [17]
  Morningglory plant response rating: 2
[1]; Preemergence, Rate 62 g/ha
  Plant response rating, Morningglory: 0
[1]; Preemergence, Rate 125 g/ha
  Plant response rating, Morningglory: 0
[1]; [18]
  Morningglory plant response rating: 0
[1]; [19]
  Morningglory plant response rating: 0
[1]; [20]
  Morningglory plant response rating: 0
[1]; [21]
  Morningglory plant response rating: 2
[2]; [22]
  Plant response rating, S. Flatsedge (0 to 10 scale, 0 is no effect, 10 is complete control): 0
[2]; [23]
  S. Flatsedge plant response rating (0 to 10 scale, 0 is no effect, 10 is complete control): 0
[2]; [24]
  S. Flatsedge plant response rating: 0
[2]; [25]
  S. Flatsedge plant response rating: 0
[3]; [17]
  Redroot pigweed plant response rating: 3
[3]; Preemergence, Rate 62 g/ha
  Plant response rating, Redroot pigweed: 1
[3]; Preemergence, Rate 125 g/ha
  Plant response rating, Redroot pigweed: 7
[3]; [18]
  Redroot pigweed plant response rating: 9
[3]; [19]
  Redroot pigweed plant response rating: 10
[3]; [20]
  Redroot pigweed plant response rating: 2
[3]; [21]
  Redroot pigweed plant response rating: 2
[4]; [17]
  Rape plant response rating: 0
[4]; Preemergence, Rate 62 g/ha
  Plant response rating, Rape: 0
[4]; Preemergence, Rate 125 g/ha
  Plant response rating, Rape: 0
[4]; [18]
  Rape plant response rating: 0
[4]; [19]
  Rape plant response rating: 3
[4]; [20]
  Rape plant response rating: 0
[4]; [21]
  Rape plant response rating: 0
[5]; [17]
  Bedstraw plant response rating: 4
[5]; [26]
  Plant response rating, Bedstraw: 2
[5]; [19]
  Bedstraw plant response rating: 2
[5]; [20]
  Bedstraw plant response rating: 4
[6]; [17]
  Wheat plant response rating: 0
[6]; Preemergence, Rate 62 g/ha
  Plant response rating, Wheat: 0
[6]; Preemergence, Rate 125 g/ha
  Plant response rating, Wheat: 0
[6]; [18]
  Wheat plant response rating: 0
[6]; [19]
  Wheat plant response rating: 1
[6]; [20]
  Wheat plant response rating: 0
[6]; [21]
  Wheat plant response rating: 0
[7]; [17]
  Giant foxtail plant response rating: 9
[7]; [27]
  Giant foxtail plant response rating: 9
[7]; [28]
  Plant response rating, Giant foxtail: 9
[7]; [26]
  Plant response rating, Giant foxtail: 10
[7]; [18]
  Giant foxtail plant response rating: 10
[7]; [19]
  Giant foxtail plant response rating: 10
[7]; [20]
  Giant foxtail plant response rating: 9
[8]; [17]
  Cocklebur plant response rating: 0
[8]; [27]
  Cocklebur plant response rating: 1
[8]; [28]
  Plant response rating, Cocklebur: 0
[8]; [26]
  Plant response rating, Cocklebur: 0
[8]; [18]
  Cocklebur plant response rating: 0
[8]; [19]
  Cocklebur plant response rating: 0
[8]; [20]
  Cocklebur plant response rating: 0
[8]; [21]
  Cocklebur plant response rating: 0
[9]; Postemergence, Rate 250 g/ha, scale 0 to 10, 0 no effect, 10 complete control
  B. signalgrass plant response rating: 3
[9]; [27]
  B. signalgrass plant response rating: 7
[9]; [28]
  Plant response rating, B. signalgrass: 0
[9]; [26]
  Plant response rating, B. signalgrass: 3
[9]; [18]
  B. signalgrass plant response rating: 6
[9]; [19]
  B. signalgrass plant response rating: 9
[9]; [20]
  B. signalgrass plant response rating: 2
[9]; [21]
  B. signalgrass plant response rating: 2
[10]; [17]
  Nutsedge plant response rating: 0
[10]; Preemergence, Rate 62 g/ha
  Plant response rating, Nutsedge: 0
[10]; Preemergence, Rate 125 g/ha
  Plant response rating, Nutsedge: 0
[10]; [18]
  Nutsedge plant response rating: 0
[10]; [20]
  Nutsedge plant response rating: 0
[10]; [21]
  Nutsedge plant response rating: 0
[11]; [22]
  Plant response rating, Ducksalad (0 to 10 scale, 0 is no effect, 10 is complete control): 0
[11]; [23]
  Ducksalad plant response rating (0 to 10 scale, 0 is no effect, 10 is complete control): 0
[11]; [24]
  Ducksalad plant response rating: 0
[11]; [25]
  Ducksalad plant response rating: 0
[12]; [17]
  Sugarbeets plant response rating: 0
[12]; Preemergence, Rate 62 g/ha
  Plant response rating, Sugarbeets: 0
[12]; Preemergence, Rate 125 g/ha
  Plant response rating, Sugarbeets: 0
[12]; [18]
  Sugarbeets plant response rating: 2
[12]; [19]
  Sugarbeets plant response rating: 4
[12]; [20]
  Sugarbeets plant response rating: 0
[12]; [21]
  Sugarbeets plant response rating: 0
[13]; [17]
  Soybean plant response rating: 4
[13]; Preemergence, Rate 62 g/ha
  Plant response rating, Soybean: 0
[13]; Preemergence, Rate 125 g/ha
  Plant response rating, Soybean: 2
[13]; [18]
  Soybean plant response rating: 2
[13]; [19]
  Soybean plant response rating: 4
[13]; [20]
  Soybean plant response rating: 4
[13]; [21]
  Soybean plant response rating: 4
[14]; [17]
  Blackgrass plant response rating: 8
[14]; [27]
  Blackgrass plant response rating: 9
[14]; [28]
  Plant response rating, Blackgrass: 2
[14]; [26]
  Plant response rating, Blackgrass: 5
[14]; [18]
  Blackgrass plant response rating: 7
[14]; [19]
  Blackgrass plant response rating: 8
[14]; [20]
  Blackgrass plant response rating: 8
[15]; [22]
  Plant response rating, Barnyardgrass (0 to 10 scale, 0 is no effect, 10 is complete control): 0
[15]; [23]
  Barnyardgrass plant response rating (0 to 10 scale, 0 is no effect, 10 is complete control): 0
[15]; [24]
  Barnyardgrass plant response rating: 0
[15]; [25]
  Barnyardgrass plant response rating: 0
[16]; [17]
  Wild oats plant response rating: 0
[16]; Preemergence, Rate 62 g/ha
  Plant response rating, Wild oats: 0
[16]; Preemergence, Rate 125 g/ha
  Plant response rating, Wild oats: 0
[16]; [18]
  Wild oats plant response rating: 3
[16]; [19]
  Wild oats plant response rating: 7
[16]; [20]
  Wild oats plant response rating: 0
[16]; [21]
  Wild oats plant response rating: 0
